Measurements reported in article PMC11855827, “High-Throughput Screening of Five Compound Libraries for Anthelmintic Activity and Toxicity Leads to the Discovery of Two Flavonoid Compounds” (International Journal of Molecular Sciences, 2025).
“And” between values parts separate entries of the source, which are not always exact repeats. Equal entries are not always repeated. Where two headings read alike, the source gives them in different places.

Tested on: C. elegans
[1] = Table S2, C. elegans SS assay, 110 μM, 24 h, averages of 4 data points
[2] = Table S2, C. elegans SS assay, 110 μM, 0 h, averages of 4 data points

| Compound | Percentage of motility inhibition 24 h [1] | Percentage of motility inhibition 0 h [2] [%] | Percentage of motility inhibition 0 h (110 µM) [%] | Percentage of motility inhibition 24 h (110 µM) [%] |
| --- | --- | --- | --- | --- |
| COC[C@]12CN(C)C3[C@@H]4[C@H](OC)[C@H]1[C@@]3([C@@H](OC)C[C@H]2O)[C@]1(O)C[C@@]2(O)[C@H](OC(=O)c3ccccc3)[C@@H]1[C@]4(OC(C)=O)[C@@H](O)[C@@H]2OC [Beiwutine] | 13% and 10% | – | – | – |
| CC(=O)NCCc1c[nH]c2ccc(O)cc12 [N‐Acetyl‐5‐hydroxytryptamine] | 0% | 0 | – | – |
| CC(=O)O[C@@H]1CC[C@@]2(C)[C@@H](CC[C@]3(C)[C@@H]2[C@H](O)C=C2[C@@H]4[C@@H](C)[C@H](C)CC[C@]4(C)CC[C@]23C)[C@@]1(C)C(=O)O | 23% | 24 | – | – |
| CC1(C)C[C@@H](O)[C@]2(C)CC[C@]3(C)C(=CC[C@@H]4[C@@]5(C)CC[C@H](O[C@@H]6O[C@H](C(=O)O)[C@@H](O)[C@H](O)[C@H]6O[C@@H]6O[C@H](CO)[C@H](O)[C@H](O)[C@H]6O[C@@H]6O[C@H](CO)[C@@H](O)[C@H](O)[C@H]6O)[C@](C)(CO)[C@@H]5CC[C@]43C)[C@@H]2C1 [Soyasaponin Ba] | 25% | 0 | – | – |
| CC(C)c1ccc2c(c1)CC[C@H]1[C@](C)(CN)CCC[C@]21C.Cl [Leelamine (hydrochloride)] | 57% | 22 | – | – |
| C=C1C[C@@]23CC[C@H]4[C@@](C)(CCC[C@@]4(C)C(=O)O)[C@@H]2CC[C@]1(O[C@@H]1O[C@H](CO)[C@@H](O)[C@H](O)[C@H]1O[C@@H]1O[C@H](CO)[C@@H](O)[C@H](O)[C@H]1O)C3 [Steviolbioside] | 5% | 10 | – | – |
| Clc1ccc(C(Cn2ccnc2)OCc2csc3c(Cl)cccc23)c(Cl)c1.O=[N+]([O-])O (stereo not drawn) [Sertaconazole (nitrate)] | 6% | 40 | – | – |
| COc1ccc(-c2cc(=O)c3c(O)cc(O[C@@H]4O[C@H](CO)[C@@H](O)[C@H](O)[C@H]4O[C@@H]4O[C@@H](C)[C@H](O)[C@@H](O)[C@H]4O)cc3o2)cc1O [Neodiosmin] | 6% | 14 | – | – |
| COc1ccc2c3c1O[C@H]1C[C@@H](O)C=C[C@@]31CCNC2 [N‐Desmethyl Galanthamine] | 0% | 0 | – | – |
| NC(=O)[C@@H]1CC[C@@H]2CN1C(=O)N2OS(=O)(=O)[O-].[Na+] [Avibactam (sodium hydrate)] | 3% | 37 | – | – |
| Nc1ccc(S(=O)(=O)Nc2cncc(Cl)n2)cc1 [Sulfaclozine] | 1% | 3 | – | – |
| CC(=O)[O-].CC(=O)[O-].O.O.O.O.[Mg+2] [Magnesium acetate tetrahydrate] | 0% | 2 | – | – |
| C=C(CC[C@@H](C(=O)O)[C@H]1CC[C@@]2(C)C3=CC[C@H]4C(C)(C)[C@@H](OC(C)=O)CC[C@]4(C)C3=CC[C@]12C)C(C)C [Dehydroeburicoic acid monoacetate] | 24% | 20 | – | – |
| COc1ccc(-c2cc(=O)c3c(OC)c(OC)c(OC)c(OC)c3o2)cc1O [3'‐Demethylnobiletin] | 0% | 0 | – | – |
| CC(=O)O.NCc1ccc(S(N)(=O)=O)cc1 [Mafenide (Acetate)] | 10% | 21 | – | – |
| COc1cc(/C=C/C(=O)O)ccc1O [Ferulic acid] | 8% | 58 | – | – |

| Compound | Percentage of motility inhibition 24 h [1] | Percentage of motility inhibition 0 h [2] [%] | Percentage of motility inhibition 0 h (110 µM) [%] | Percentage of motility inhibition 24 h (110 µM) [%] |
| --- | --- | --- | --- | --- |
| COc1cc(-c2coc3cc(O[C@@H]4O[C@H](CO)[C@@H](O)[C@H](O)[C@H]4O)c(OC)c(O)c3c2=O)ccc1O [Iristectorin B] | 6% | 5 | – | – |
| C=CC(=C)CCCC(C)CCCC(C)CCCC(C)C (stereo not drawn) [Neophytadiene] | 6% | 3 | – | – |
| CO/N=C(\C(=O)N[C@@H]1C(=O)N2C(C(=O)[O-])=C(CSc3nc(=O)c([O-])nn3C)CS[C@H]12)c1csc(N)n1.CO/N=C(\C(=O)N[C@@H]1C(=O)N2C(C(=O)[O-])=C(CSc3nc(=O)c([O-])nn3C)CS[C@H]12)c1csc(N)n1.O.O.O.O.O.O.O.[Na+].[Na+].[Na+].[Na+] [Ceftriaxone (sodium salt)] | – | – | 25 | 16 |
| c1cncc([C@@H]2CCCCN2)c1 (racemic) [(±) Anabasine] | 0% | 3 | – | – |
| O=c1cc(-c2ccc(O[C@@H]3O[C@H](CO)[C@@H](O)[C@H](O)[C@H]3O)cc2)oc2cc(O)c([C@@H]3O[C@H](CO)[C@@H](O)[C@H](O)[C@H]3O[C@@H]3OC[C@H](O)[C@H](O)[C@H]3O)c(O)c12 [Vaccarin] | 6% | 0 | – | – |
| CC1(C)CC[C@]2(C(=O)O[C@@H]3O[C@H](CO[C@@H]4O[C@H](CO)[C@@H](O)[C@H](O)[C@H]4O)[C@@H](O)[C@H](O)[C@H]3O)CC[C@]3(C)C(=CC[C@@H]4[C@@]5(C)CC[C@H](O[C@@H]6OC[C@H](O)[C@H](O)[C@H]6O)[C@@](C)(CO)[C@@H]5CC[C@]43C)[C@@H]2C1 [Asperosaponin VI] | 2% | 0 | – | – |
| Cc1cc(-n2c(=O)[nH]c(=O)n(C)c2=O)ccc1Oc1ccc(S(=O)(=O)C(F)(F)F)cc1 [Toltrazuril (sulfone)] | 12% | 38 | – | – |
| Handelin | 14% | 0 | – | – |
| CC1=CCC2CC1C2(C)C (stereo not drawn) [(-)-α-Pinene] | 6% | 0 | – | – |
| CC(=O)O[C@@H]1CC[C@@]2(C)[C@@H](CC[C@]3(C)[C@@H]2CC=C2[C@@H]4[C@@H](C)[C@H](C)CC[C@]4(C)CC[C@]23C)[C@@]1(C)C(=O)O [3-Acetyl-beta-boswellic acid] | 21% | 15 | – | – |
| Nc1ncnc2c1ncn2[C@@H]1O[C@H](COP(=O)(O)O)[C@@H](O)[C@H]1O [Adenosine monophosphate] | 6% | 8 | – | – |
| COc1cc2c(cc1OC)-c1cc3ccc(OC)c(O)c3c[n+]1CC2.[OH-] [Palmaturbine (hydroxide)] | 8% | 0 | – | – |
| O=c1ccoc2cc(O)cc(O)c12 [5,7‐Dihydroxychromone] | 0% | 0 | – | – |
| CN[C@@H](Cc1c[nH]c2ccccc12)C(=O)O [L‐(+)‐Abrine] | 0% | 0 | – | – |
| O=C(N[C@@H](Cc1ccccc1)C(=O)N[C@H](CO)Cc1ccccc1)c1ccccc1 [Aurantiamide] | 15% | 0 | – | – |
| C[C@@H]1O[C@@H](OC[C@H]2O[C@@H](Oc3c(-c4ccc(O)c(O)c4)oc4cc(O)cc(O)c4c3=O)[C@H](O)[C@@H](O)[C@@H]2O)[C@H](O)[C@H](O)[C@H]1O.O [Rutin (hydrate)] | 8% | 2 | – | – |
